Data as given in US12365658B2, “Benzothia(di)azepine compounds and their use as bile acid modulators” (Albireo AB, priority 2021, dated 2025).

Columns and labels:
Bioavailability studies = assay type: in vivo, Male mice (C57BL/6 or CD1) or Wistar rats; conditions: male, plasma; single intravenous dose 1 mg/kg and single oral dose 10 mg/kg; species per compound not given
Procedure: Male mice (C57BL/6 or CD1) or Wistar rats of 8-9 weeks old were used. For each test compound, two groups of 3 animals each were used. One group was administered a single intravenous dose of 1 mg/kg (vehicle 100% DMSO) through the tail vein and the other group was administered a single oral dose of 10 mg/kg through gavage needle. The group that was administered an oral dose was fasted overnight. Blood samples were collected after 0.083, 0.25, 0.5, 1, 2, 4, 6, 8 and 24 hours following intravenous administration, and after 0.25, 0.5, 1, 2, 4, 6, 8 and 24 hours following oral administration. Blood samples were taken from saphenous vein. 0.2% EDTA was used as the anticoagulant. The samples were analyzed by a discovery grade bioanalytical method developed for the estimation of test compound in plasma, using an LC-MS/MS system.

Human LBAT = target: T1, Human LBAT (Homo sapiens, UniProt Q14973); experiment: LBAT (h/m) assay, human LBAT-overexpressing cells, 3H-taurocholic acid uptake; assay type: cell-based; conditions: 0.3 μM 3H-taurocholic acid and 7.5 μM cold taurocholic acid, 20 minutes, read-out: hLBAT IC50
T1 construct: expressed in transfected cells; kept under Geneticin selection
T1 sequence (Q14973 1-349): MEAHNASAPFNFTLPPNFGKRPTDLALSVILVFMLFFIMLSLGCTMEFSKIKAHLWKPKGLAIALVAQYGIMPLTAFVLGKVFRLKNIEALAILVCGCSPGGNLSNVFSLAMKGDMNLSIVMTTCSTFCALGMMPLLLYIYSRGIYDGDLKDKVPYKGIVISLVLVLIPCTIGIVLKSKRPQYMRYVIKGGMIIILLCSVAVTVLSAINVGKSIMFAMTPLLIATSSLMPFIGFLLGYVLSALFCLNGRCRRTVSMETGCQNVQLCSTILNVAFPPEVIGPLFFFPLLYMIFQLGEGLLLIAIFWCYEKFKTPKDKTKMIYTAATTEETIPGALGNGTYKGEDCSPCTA
Procedure: LBAT (h/m) Assay Protocol
20,000 cells (Human or Mouse LBAT-overexpressing cells) were seeded in 96-wells plate (Corning CLS3809) in 100 μL MEM-alpha medium (Gibco 12571-063) supplemented with 10% FBS (Gibco 10438026) containing Geneticin (Gibco 10131-027) (1 mg/mL) and incubated at 37° C. in 5% CO2 for 24 hours. After incubation, media was decanted from the wells and cells were washed two times with 300 μL of basal MEM-alpha medium (FBS-free). After decanting basal MEM-alpha medium each time, plates were tapped against paper towel to ensure maximum removal of residual media.
For human LBAT, incubation mix was prepared by adding test inhibitor dilutions (3-fold serial dilution in DMSO (Sigma D2650), 10 points) in MEM-alpha (without FBS) containing 0.3 μM 3H-taurocholic acid (ARC ART-1368) and 7.5 μM cold taurocholic acid (Sigma T4009) (maintaining 0.2% final DMSO concentration). For mouse LBAT, incubation mix was prepared by adding test inhibitor dilutions (3-fold serial dilution in DMSO, 10 points) in MEM-alpha (without FBS) containing 0.3 μM 3H-taurocholic acid and 25 μM cold taurocholic acid maintaining 0.2% final DMSO concentration).
50 μL of incubation mix containing test inhibitors was then added to the wells (in duplicate) and the plates were incubated for 20 minutes in a CO2 incubator at 37° C. After incubation, the reaction was stopped by keeping the plates on ice water mix for 2-3 minutes and then the incubation mix was aspirated completely from the wells. The wells were washed two times with 250 μL of chilled unlabelled 1 mM taurocholic acid dissolved in HEPES (Gibco 15630080)-buffered (10 mM) HBSS (Gibco 14175079) (pH 7.4). The plates were tapped against a paper towel after every wash to ensure maximum removal of blocking buffer.
100 μL of MicroScint-20 (PerkinElmer 6013621) was added to the wells and kept overnight at room temperature before reading the plates in TopCount NXT™ Microplate Scintillation and Luminescence Counter from PerkinElmer under 3H Test protocol (set at 120 seconds reading time per well, with normal plate orientation).
Preparation of Test Compound Dilutions
All test compounds were provided in powder form at room temperature. 10 mM DMSO stocks of the test compounds were prepared, aliquoted and stored at −20° C. From the 10 mM DMSO stock of the compounds, a 3-fold serial dilution in DMSO was prepared to get a total of 10 dilutions of the test compounds. 0.5 μL of this dilution in DMSO was added to 250 μL of FBS-free basal media containing 3H-taurocholic acid and cold taurocholic acid to prepare the incubation mixture.

Caco-2 cells = experiment: Bidirectional permeability assay (Caco-2 cells); assay type: in vitro ADME; conditions: 10 μM in FaSSIF buffer, 120 minutes
Procedure: Bidirectional Permeability Assay (Caco-2 Cells)
Caco-2 cells (Evotec) were seeded at a density of 70,000 cells/well in Millicell® 24-well cell culture insert plates and maintained in an incubator (37° C., 5% CO2, 95% RH) for 21 days with media change on alternate days.
Stock solutions (10 mM) of the test compounds, atenolol (low permeability marker), propranolol (high permeability marker) and digoxin (substrate for P-gp transport pathway) were prepared in dimethylsulfoxide (DMSO). An intermediate stock solution (1 mM) was prepared by diluting 10 μL of 10 mM master stock solution with 90 μL of neat DMSO. A working stock solution (10 μM) was prepared by diluting 50 μL of 1 mM with 4950 μL of FaSSIF buffer. Post addition of compounds to the FaSSIF, samples were subjected to sonication for 2 hours, and centrifuged at 4000 RPM for 30 minutes at 37° C. The 4 mL of resultant supernatant was directly used in the assay. The final DMSO concentration in the transport experiments was 1%.
On the day of assay, Caco-2 monolayers were washed twice with transport buffer (HBSS, pH 7.4) and pre-incubated for 30 min (37° C., 5% CO2, 95% RH) in an incubator. The electrical resistance of the monolayers was measured with a Millicell®-ERS system. Monolayers with trans-epithelial electrical resistance (TEER) values greater than 350 ohm·cm^2 were selected for the assay.
The assay was conducted in absorptive direction (A2B) and secretory (B2A) directions. Transport experiments were initiated by addition of transport assay buffer (FaSSIF buffer prepared in HBSS) consisting of compounds to the donor compartment (apical chamber A-B; basolateral chamber B-A) in duplicate (n=2) wells. Drug free HBSS buffer (pH 7.4) containing 1% bovine serum albumin (BSA) was introduced to the receiver (A-B-basolateral; B-A-Apical) compartments. The volumes of apical and basolateral compartments were 0.4 and 0.8 mL, respectively. After adding dosing solution, plates were incubated in an incubator for 120 minutes at 37° C. After 120 minutes, donor and receiver samples were collected and matrix matched (1:1, 30 μL study sample+30 μL blank buffer) with the opposite buffer. Dosing samples matrix matched (1:1, 30 μL study sample+30 μL blank buffer) with the opposite buffer. Samples were processed by adding acetonitrile containing internal standard (60 μL study sample+200 μL acetonitrile containing internal standard-Tolbutamide, 500 ng/mL). Samples were vortexed and centrifuged at 4000 rpm for 10 minutes. The obtained supernatant (100 μL) was diluted with 100 μL of water and transferred to fresh 96 well plates. The concentration of compounds in the samples was analyzed by liquid chromatography tandem mass spectrometry (LC-MS/MS) method using discovery grade bio-analytical method, as applicable.
The mean apparent permeability (Papp, ×10^−6 cm/sec) of the test compounds, atenolol, propranolol and digoxin were calculated as follows:
where dq/dt=rate of transport (rate of transport of compound in the receiver compartment), C0=initial concentration in the donor compartment, A=surface area of the effective filter membrane.

Question: For `CCCCC1CN(c2ccc(F)cc2)c2cc(SC)c(OCC(C)(C)C(=O)O)cc2S(=O)(=O)N1C` (single isomer, unassigned) [14, enantiomer 2], which bioavailability (Bioavailability studies) is on record?
Answer: 100%

Question: And the IC50 (Human LBAT)?
Answer: 3 nM

Question: What about the “Permeability (Caco-2) Papp A2B” value (Caco-2 cells; absorptive direction (A2B)) of the same compound?
Answer: 12.2 ×10⁻⁶ cm/s

Question: What about the “Permeability (Caco-2) Papp B2A” value (Caco-2 cells; secretory direction (B2A)) of the same compound?
Answer: 7.3 ×10⁻⁶ cm/s
